Laboratory results from US6881584B1, “Infrared thermography” (SmithKline Beecham Corporation, priority 1998, dated 2005).

Test system: liver
Experiment: Liver thermogenesis in AKR mice with IR transparent adhesive
Assay type: in vivo
Conditions: AKR mice on high-fat diet, 75 mg/kg i.g., 5 hours
Procedure: FIG. 31. Liver thermogenesis in AKR mice 5 hours after treatment with the nucleoside reverse transcriptase inhibitor (NRTI) D4T detected by IR thermography. Male AKR mice were housed 5 per cage and maintained on high fat diet (58% kCals as fat) and water ad libitum. Mice were dosed at 0, 1, 10, 75, and 100 mg/kg D4T in water vehicle (0.5 mL i.g.; n=10 per dose) and anesthetized using isoflurane as described above 5 hours after treatment. The abdomens of the anesthetized mice were surgically opened to expose the liver and Bioclusive adhesive was placed over the entire exposed area. IR images of the liver region were acquired and analyzed as detailed in FIG. 28. […] Quantification of the IR signal depicted in the image is shown in the bottom left panel. Analysis of the dose response to D4T is shown in the panel to the right. Data shown are means±SEM for n=10 animals per group.
AKR mice fed a high-fat diet were treated with 75 mg/kg D4T, and their abdomens were surgically opened and covered with Bioclusive adhesive 5 hour later. […] This decrease is quantitated in the lower left panel of FIG. 31. Moreover, the dose-dependent effect of D4T on decreased liver temperature determined using IR thermography (FIG. 31, right panel) correlated well with the effect of D4T treatment on serum non-esterified fatty acid levels (r=0.91, data not shown).

Cc1cn([C@H]2C=C[C@@H](CO)O2)c(=O)[nH]c1=O [D4T]
liver temperature: decrease in temperature
